Measurements reported in publication PMC3498381, “Isolated Toll-like Receptor Transmembrane Domains Are Capable of Oligomerization” (PLoS ONE, 2012).
No end group written: not given here.

Key:
Conditions in all cases: Miller units normalized to poly-Leu* = 1 and corrected for expression, lower = stronger interaction, N in table
[1] = test system: TLR6 TMD (functional ToxR chimera); test: Dominant-negative (heterotypic) ToxR assay, TLR6 as dominant phenotype; assay type: cell-based, E. coli
Description: (§1) Next, we investigated heterotypic interactions of the TLRs. We specifically studied TLR2, TLR1, and TLR6 because they are cell surface expressed receptors known to form functional heterodimers. To determine the ability of these three cell surface TLRs to have heterotypic interactions within its family, we studied the ability of the TLR1, TLR2, and TLR6 TMDs to interact with the TLR receptors also expressed at the cell surface; namely, TLR1, TLR2, TLR4, TLR5, TLR6, and TLR10. We monitored these interactions using a dominant-negative ToxR assay (Fig. S1B) which works by having a second TMD expressed with a non-functional ToxR* intracellular domain. This ToxR* domain is incapable of binding the ctx promoter making any interactions with this second expressed TMD unable to produce the reporter enzyme. As such, any interaction between the functional ToxR and non-functional ToxR* TMDs will result in a reduction in signal output.
(§2) Figure 3 Cell- Surface Toll-like Recptor Heterotypic Interactions. (A) A dominant-negative ToxR assay was used to study heterotypic interactions of the cell-surface TLRs. Two TLR TMDs were encoded in the FHK12 E.coli reporter strain, one with a functional ToxR domain (dominant phenotype) and one with a nonfunctional ToxR* domain (negative phenotype). Interaction between the two different TMDs leads to a reduction in signal from that seen for homotypic interactions. The TMDs for GpA, TLR1, TLR2, and TLR6 were used with the functional ToxR domain while TMDs for poly-Leucine, TMD5, integrin αIIb, TLR1, TLR2, TLR4, TLR5, TLR6, and TLR10 were used with the nonfunctional ToxR* domain. Interactions were most prominent for the TLRs known to have heterotypic interactions – TLR2-TLR1 and TLR2-TLR6. […] We also saw interaction with the same TMD further validating the homotypic interactions. […] Each dominant phenotype was done in 3 technical replicates with each negative phenotype and >6 measurements made for each replicate. Error bars depict the standard error of the mean (n- Tables S3, S5, S7, S9). Western blots staining for MBP were performed to monitor expression levels of the constructs with the upper band being functional ToxR chimeras and the lower band being nonfunctional ToxR* chimeras – (B) GpA, (C) TLR1, (D) TLR2, and (E) TLR6. Significant differences for the same dominant phenotype were determined by use of the Tukey-Kramer test.
(§3) For heterotypic interactions one plasmid containing a functional ToxR domain (200 ng) and a second plasmid containing a non-functional ToxR* domain (200 ng) were co-transformed into chemically competent FHK12 E. coli (400 µL) by incubating on ice for 30 min, heat shock at 42°C for 90 s, incubation on ice for 2 min, and addition of SOC media (1600 µL) followed by incubation with shaking for 1 h at 37°C. This transformation mixture (50 µL) was then used to spread LB-agar plates containing cholaramphenicol (30 µg/mL), kanamycin (33 µg/mL), and ampicillin (100 µg/mL) and grown overnight at 37°C. Single colonies were selected from the plates and grown in 5 mL LB media containing cholaramphenicol (30 µg/mL), kanamycin (33 µg/mL), ampicillin (100 µg/mL), and arabinose (0.0025%) overnight (16–20 h) with shaking at 37°C. Analysis of activity was monitored as described in homotypic ToxR assays. Western blotting was done in the same manner as the homotypic ToxR assay with one band appearing for the functional ToxR construct and a second band for the nonfunctional ToxR* construct. Data were normalized to poly-Leu* Miller Units and corrected for varying protein expression levels using ImageJ (NIH) as previously reported.

[2] = test system: GpA TMD (functional ToxR chimera); test: Dominant-negative (heterotypic) ToxR assay, GpA as dominant phenotype; assay type: cell-based
Description: as §1, §2, §3

[3] = test system: TLR1 TMD (functional ToxR chimera); test: Dominant-negative (heterotypic) ToxR assay, TLR1 as dominant phenotype; assay type: cell-based
Description: as §1, §2, §3

Substance	Mean TLR6-TMD* heterotypic interaction (ToxR signal) [1]	Mean GpA-TMD* heterotypic interaction (ToxR signal) [2]	Mean TLR1-TMD* heterotypic interaction (ToxR signal) [3]
TLR2*: TLR2 TMD chimera with nonfunctional ToxR* domain (negative phenotype) (GNRASALVSGMCCALFLLILLTGVLCGSLIN; cysteine pairing not given here; also: fused to non-functional ToxR* (S87H) and maltose binding protein, ends not given here)	0.2802	0.7284	0.3243
TLR1*: TLR1 TMD chimera with nonfunctional ToxR* domain (negative phenotype) (GNRASITLLIVTIVATMLVLAVTVTSLCSYLGSLIN; also: fused to non-functional ToxR* (S87H) and maltose binding protein, ends not given here)	0.3316	0.8934	0.3722
TLR6*: TLR6 TMD chimera with nonfunctional ToxR* domain (negative phenotype) (GNRASITLLIVTIGATMLVLAVTVTSLCIYLGSLIN; also: fused to non-functional ToxR* (S87H) and maltose binding protein, ends not given here)	0.2564	1.0451	0.3349
